Experimental data: ChEMBL document CHEMBL5303573, “Mapping human microbiome drug metabolism by gut bacteria and their genes” (Nature, 2019)

Experiments:
[1] = The drug is tested on Bifidobacterium longum subsp. Infantis strain: CCUG52486 for biotransformation. The drug concentrations were measured before and after a 12-h incubation by liquid-chromatography-coupled mass spectrometry (LC–MS); conditions: 2 µM
[2] = The drug is tested on Bacteroides dorei strain: DSM17855 for biotransformation. The drug concentrations were measured before and after a 12-h incubation by liquid-chromatography-coupled mass spectrometry (LC–MS); conditions: phocaeicola dorei, 2 µM
[3] = The drug is tested on Bacteroides fragilis strain: ATCC43859 for biotransformation. The drug concentrations were measured before and after a 12-h incubation by liquid-chromatography-coupled mass spectrometry (LC–MS); conditions: 2 µM
[4] = The drug is tested on Bacteroides ovatus strain: ATCC8483 for biotransformation. The drug concentrations were measured before and after a 12-h incubation by liquid-chromatography-coupled mass spectrometry (LC–MS); conditions: 2 µM
[5] = The drug is tested on Bacteroides pectinophilus strain: ATCC43243 for biotransformation. The drug concentrations were measured before and after a 12-h incubation by liquid-chromatography-coupled mass spectrometry (LC–MS); conditions: 2 µM
[6] = The drug is tested on Parabacteroides merdae strain: ATCC43184 for biotransformation. The drug concentrations were measured before and after a 12-h incubation by liquid-chromatography-coupled mass spectrometry (LC–MS); conditions: 2 µM
[7] = The drug is tested on Blautia hansenii strain: DSM20583 for biotransformation. The drug concentrations were measured before and after a 12-h incubation by liquid-chromatography-coupled mass spectrometry (LC–MS); conditions: 2 µM
[8] = The drug is tested on Clostridium asparagiforme strain: DSM15981 for biotransformation. The drug concentrations were measured before and after a 12-h incubation by liquid-chromatography-coupled mass spectrometry (LC–MS); type: ADME; set-up: dose 2 uM, timepoint 0 vs 12 hours; conditions: enterocloster asparagiformis, 2 µM
[9] = The drug is tested on Coprococcus comes strain: ATCC27758 for biotransformation. The drug concentrations were measured before and after a 12-h incubation by liquid-chromatography-coupled mass spectrometry (LC–MS); type: ADME; set-up: dose 2 uM, timepoint 0 vs 12 hours; conditions: 2 µM
[10] = The drug is tested on Eubacterium hallii strain: DSM3353 for biotransformation. The drug concentrations were measured before and after a 12-h incubation by liquid-chromatography-coupled mass spectrometry (LC–MS); conditions: anaerobutyricum hallii, 2 µM
[11] = The drug is tested on Ruminococcus gnavus strain: ATCC29149 for biotransformation. The drug concentrations were measured before and after a 12-h incubation by liquid-chromatography-coupled mass spectrometry (LC–MS); conditions: mediterraneibacter gnavus, 2 µM
[12] = The drug is tested on Ruminococcus lactaris strain: ATCC29176 for biotransformation. The drug concentrations were measured before and after a 12-h incubation by liquid-chromatography-coupled mass spectrometry (LC–MS); conditions: 2 µM
[13] = The drug is tested on Subdoligranulum variabile strain: DSM15176 for biotransformation. The drug concentrations were measured before and after a 12-h incubation by liquid-chromatography-coupled mass spectrometry (LC–MS); conditions: 2 µM
[14] = parabacteroides distasonis, 12 h, 2 µM
Description: The drug is tested on Parabacteroides distasonis strain: ATCC8503 for biotransformation. The drug concentrations were measured before and after a 12-h incubation by liquid-chromatography-coupled mass spectrometry (LC–MS)

[15] = The drug is tested on Clostridium sp. strain: fecal isolate for biotransformation. The drug concentrations were measured before and after a 12-h incubation by liquid-chromatography-coupled mass spectrometry (LC–MS); conditions: 2 µM
[16] = The drug is tested on Eubacterium rectale strain: ATCC33656 for biotransformation. The drug concentrations were measured before and after a 12-h incubation by liquid-chromatography-coupled mass spectrometry (LC–MS); conditions: agathobacter rectalis, 2 µM
[17] = The drug is tested on Eubacterium ventriosum strain: ATCC27560 for biotransformation. The drug concentrations were measured before and after a 12-h incubation by liquid-chromatography-coupled mass spectrometry (LC–MS); type: ADME; set-up: dose 2 uM, timepoint 0 vs 12 hours; conditions: 2 µM
[18] = The drug is tested on Escherichia coli strain: BW25113 for biotransformation. The drug concentrations were measured before and after a 12-h incubation by liquid-chromatography-coupled mass spectrometry (LC–MS); conditions: 2 µM
[19] = bacteroides stercoris, 12 h, 2 µM
Description: The drug is tested on Bacteroides stercoris strain: ATCC43183 for biotransformation. The drug concentrations were measured before and after a 12-h incubation by liquid-chromatography-coupled mass spectrometry (LC–MS)

[20] = enterocloster bolteae, 12 h, 2 µM
Description: The drug is tested on Clostridium bolteae strain: ATCCBAA-613 for biotransformation. The drug concentrations were measured before and after a 12-h incubation by liquid-chromatography-coupled mass spectrometry (LC–MS)

| Compound | Bacterial Biotransformation [1] | Bacterial Biotransformation [2] | Bacterial Biotransformation [3] | Bacterial Biotransformation [4] | Bacterial Biotransformation [5] | Bacterial Biotransformation [6] | Bacterial Biotransformation [7] | Bacterial Biotransformation [8] | Bacterial Biotransformation [9] | Bacterial Biotransformation [10] | Bacterial Biotransformation [11] | Bacterial Biotransformation [12] | Bacterial Biotransformation [13] | Bacterial Biotransformation [14] | Bacterial Biotransformation [15] | Bacterial Biotransformation [16] | Bacterial Biotransformation [17] | Bacterial Biotransformation [18] | Bacterial Biotransformation [19] | Bacterial Biotransformation [20] |
| --- | --- | --- | --- | --- | --- | --- | --- | --- | --- | --- | --- | --- | --- | --- | --- | --- | --- | --- | --- | --- |
| Cc1ccccc1C(OCCN(C)C)c1ccccc1.O=C(O)CC(O)(CC(=O)O)C(=O)O (stereo not drawn) [ORPHENADRINE CITRATE] | Compound NOT metabolized | Compound NOT metabolized | Compound NOT metabolized | Compound NOT metabolized | Compound NOT metabolized | Compound NOT metabolized | Compound metabolized | Compound NOT metabolized | Compound NOT metabolized | Compound NOT metabolized | Compound NOT metabolized | Compound NOT metabolized | Compound NOT metabolized | Compound NOT metabolized | – | – | – | – | – | – |
| CCc1nn(CCCN2CCN(c3cccc(Cl)c3)CC2)c(=O)n1CCOc1ccccc1 [NEFAZODONE] | Compound NOT metabolized | – | – | Compound NOT metabolized | Compound NOT metabolized | Compound NOT metabolized | Compound NOT metabolized | Compound NOT metabolized | Compound NOT metabolized | – | Compound NOT metabolized | Compound NOT metabolized | Compound NOT metabolized | Compound NOT metabolized | Compound NOT metabolized | Compound NOT metabolized | Compound NOT metabolized | Compound NOT metabolized | Compound NOT metabolized | Compound NOT metabolized |
| COc1ccccc1N1CCN(CC(O)COc2cccc3ccccc23)CC1 (stereo not drawn) [NAFTOPIDIL] | Compound NOT metabolized | Compound NOT metabolized | – | Compound NOT metabolized | Compound NOT metabolized | Compound NOT metabolized | Compound NOT metabolized | Compound NOT metabolized | – | Compound NOT metabolized | Compound NOT metabolized | Compound NOT metabolized | Compound NOT metabolized | Compound NOT metabolized | Compound NOT metabolized | Compound NOT metabolized | Compound NOT metabolized | Compound NOT metabolized | Compound NOT metabolized | Compound NOT metabolized |
| CN(C(=O)CN(CCO)CC(=O)N(C)C(C)(C)Cc1ccccc1)C(C)(C)Cc1ccccc1 [OXETHAZAINE] | Compound NOT metabolized | – | Compound NOT metabolized | Compound NOT metabolized | – | Compound NOT metabolized | Compound NOT metabolized | Compound NOT metabolized | – | Compound NOT metabolized | Compound NOT metabolized | Compound NOT metabolized | Compound NOT metabolized | – | – | – | Compound NOT metabolized | – | Compound NOT metabolized | – |
| NC(=O)N1c2ccccc2CC(=O)c2ccccc21 [OXCARBAZEPINE] | Compound metabolized | Compound metabolized | – | Compound NOT metabolized | Compound metabolized | Compound NOT metabolized | Compound NOT metabolized | Compound NOT metabolized | Compound NOT metabolized | Compound NOT metabolized | Compound NOT metabolized | Compound metabolized | Compound NOT metabolized | Compound metabolized | Compound NOT metabolized | Compound metabolized | Compound metabolized | Compound metabolized | Compound metabolized | Compound NOT metabolized |
| COc1ccccc1OCC(O)COC(N)=O (stereo not drawn) [METHOCARBAMOL] | Compound NOT metabolized | Compound NOT metabolized | Compound NOT metabolized | Compound NOT metabolized | – | Compound NOT metabolized | Compound NOT metabolized | Compound NOT metabolized | Compound NOT metabolized | Compound NOT metabolized | Compound NOT metabolized | – | Compound NOT metabolized | Compound NOT metabolized | – | Compound NOT metabolized | Compound NOT metabolized | – | Compound NOT metabolized | Compound NOT metabolized |
| CCOC(=O)[C@H](CCc1ccccc1)N[C@@H](C)C(=O)N1CCC[C@H]1C(=O)O.O=C(O)/C=C\C(=O)O [ENALAPRIL MALEATE] | Compound NOT metabolized | – | – | Compound NOT metabolized | Compound NOT metabolized | Compound NOT metabolized | Compound metabolized | Compound NOT metabolized | Compound NOT metabolized | Compound NOT metabolized | Compound NOT metabolized | Compound NOT metabolized | Compound NOT metabolized | Compound NOT metabolized | – | Compound NOT metabolized | Compound NOT metabolized | Compound NOT metabolized | Compound NOT metabolized | Compound NOT metabolized |
| Cc1nc(Nc2ncc(C(=O)Nc3c(C)cccc3Cl)s2)cc(N2CCN(CCO)CC2)n1.O [DASATINIB] | Compound NOT metabolized | Compound metabolized | – | Compound NOT metabolized | Compound NOT metabolized | Compound NOT metabolized | Compound metabolized | Compound NOT metabolized | Compound NOT metabolized | – | Compound NOT metabolized | Compound NOT metabolized | Compound metabolized | Compound metabolized | Compound metabolized | Compound NOT metabolized | Compound NOT metabolized | Compound NOT metabolized | Compound metabolized | Compound metabolized |
| CCN(CC)C(C)CN1c2ccccc2Sc2ccccc21 (stereo not drawn) [ETHOPROPAZINE] | – | Compound metabolized | – | Compound metabolized | Compound metabolized | – | Compound metabolized | Compound NOT metabolized | Compound NOT metabolized | Compound NOT metabolized | Compound NOT metabolized | Compound NOT metabolized | Compound NOT metabolized | Compound metabolized | Compound metabolized | Compound NOT metabolized | Compound NOT metabolized | Compound metabolized | Compound NOT metabolized | Compound NOT metabolized |
